In patent US20220016079A1, “COMBINATION TREATMENT OF HIV INFECTIONS” (priority 2018, published 2022):

Experiments:
2D10 cells = assay: Cytotoxicity by LDH assay in 2D10 cells; assay type: cell-based; conditions: 0 to 20 μM, 48 h
Experimental: Drug titration was conducted.
For analysis of cell viability, cells (100,000 cells/100 μL) were treated in triplicate for 48 h with increasing concentrations of Debio-1143 or other known LRAs (0 to 20 μM). Cellular cytotoxicity was analyzed by Lactate dehydrogenase (LDH) assay. LDH is an oxidoreductase enzyme that catalyzes the interconversion of pyruvate and lactate. Cells release LDH into the bloodstream after tissue damage or red blood cell hemolysis. Since LDH is a fairly stable enzyme, it has been widely used to evaluate the presence of damage and toxicity of tissue and cells. In this particular, LDH reduces NAD to NADH, which is specifically detected by colorimetric (490 nm) assay.

[1] = tested on: CD4+ T cell line JLat 10.6; assay: Cellular cytotoxicity (LDH assay and CellTiter Glo assay); assay type: cell-based, human; conditions: even at high concentration (20 μM), 72 h
Experimental: (§1) This experiment examined the cellular cytotoxicity of DEB10-1143 alone and DEB10-1143+ART on the human CD4+ T cell line JLat 10.6. DEB10-1143 was tested as well on human primary CD4+ T lymphocytes. Drug titration and kinetic studies were conducted.
(§2) Method: Cells (100,000 cells/100 μL) were treated in triplicate for 72 h with increasing concentrations of DEB10-1143 (0 to 20 μM) used alone or in combination with ART (20 μM TDF, 10 μM FTC and 1 μM Raltegravir). ART and DEB10-1143 were added simultaneously to cells. Saponin (0.5%) was used as positive control due to its ability to induce cell death.
(§3) Cellular cytotoxicity was analyzed by Lactate dehydrogenase (LDH) assay and CellTiter Glo assay.
(§4) LDH assay: LDH is an oxidoreductase enzyme that catalyses the interconversion of pyruvate and lactate. Cells release LDH into the bloodstream after tissue damage or red blood cell hemolysis. […] In this particular assay, LDH reduces NAD to NADH, which is specifically detected by colorimetric (490 nm) assay.
(§5) CellTiter Glo assay: The CellTiter-Glo® 2.0 Assay determines the number of viable cells in culture by quantifying ATP, which indicates the presence of metabolically active cells. Luminescence readout is directly proportional to the number of viable cells in culture. Data are expressed in luminescence (RLU) in triplicate

[2] = tested on: primary CD4+ T-lymphocytes; assay: as above; assay type: cell-based, human; conditions: even at high concentration (20 μM), 72 h
Experimental: as §1, §2, §3, §4, §5

[3] = tested on: latent HIV in resting CD4+ T-lymphocytes; assay: HIV-1 reactivation in resting CD4+ T cells from PBMCs of three ART-treated HIV patients (HIV RNA in supernatant); assay type: cell-based, human
Description: The experiments of this example analyzed the ability of IAPa, ICIs, or IAPa/ICI combinations at reactivating latent HIV in resting CD4+ T-lymphocytes isolated from peripheral blood monocytic cells (PBMCs) derived from HIV patients currently under ART.
Method: Resting CD4+ T cells were isolated from PBMCs of three ART-treated HIV patients by negative selection and magnetic separation (Easysep Mouse/Human Chimera Isolation Kits from […] technologies). Isolated resting CD4+ T cells (50,000 cells/50 μL) were treated in duplicate for 48h with different IAPa (1 μM) or ICI (10 μg/ml) in monotherapy, or the IAPa/ICI combinations. Amounts of virions released from cells were quantified at the indicated time points by quantifying HIV RNA levels (HIV RNA copies/mL) in supernatant of cell culture using one-step reverse transcriptase quantitative real-time PCR (ABI custom TaqMan Assays-by-Design) according to the manufacturer's instructions. Primers were 5-[…]-3 and 5-[…]-3, and MGB probe 5-FAM-[…]-Q-3, where FAM is 6-carboxyfluorescein.
(§6) The experiment was carried out using the same agents as described above for Example 8.1 (with the exception that no birinapant was used).

[4] = tested on: latent HIV-1 in rCD4+ cells co-cultured with CD8+ cells; assay: HIV-1 reactivation in ex vivo co-cultures of rCD4+ and CD8+ cells from an ART-treated HIV patient (HIV RNA in supernatant); assay type: cell-based, human
Experimental: The efficacy of IAPa, ICI or IAPa/ICI combinations in reversing HIV-1 latency was tested in HIV-1 infected rCD4+ cells co-cultured for 48 h with CD8+ cells from the same donor.
Method: Blood from one HIV-1-infected patient under ART was collected (500 mL) and CD4+ and CD8+ cells isolated using beads coated with specific antibodies following manufacturer's instruction (MojoSort™ Human Cell Isolation Kits from Biolegend). The CD4+ T cells were re-infected with HIV-1 (JR-CSF) (1 μg of p24), incubated for 3 days to allow establishment of infection, and treated with ART ([…]) for 7 days to ensure presence of enough latent HIV CD4+ cells (rCD4+) in the culture. Upon ART removal, rCD4 were then isolated following manufacturer's instruction (EasySep™ Human Resting CD4+ T Cell Isolation Kit). The isolated rCD4 were mixed with autologous (from the same patient) uninfected CD8+ T cells at a 1:1 ratio (100,000 cells) and incubated in duplicate for 48 h with different IAPa ([…]) or ICI (10 μg/ml) in monotherapy, or the IAPa/ICI combinations. Amounts of virions released from cells were quantified at the indicated time points by quantifying HIV RNA levels (HIV RNA copies/mL) in supernatant of cell culture using one-step reverse transcriptase quantitative real-time PCR (ABI custom TaqMan Assays-by-Design) according to the manufacturer's instructions. Primers were 5-[…]-3 and 5-[…]-3, and MGB probe 5-FAM-[…]-Q-3, where FAM is 6-carboxyfluorescein.

[5] = tested on: latent HIV-1 in resting CD4+ T cells; assay: Ex vivo HIV-1 reactivation in human resting CD4+ T cells from ART-treated HIV-1-infected humanized BLT mice (HIV RNA in supernatant); assay type: cell-based
Experimental: The efficacy of IAPa, ICI or IAPa/ICI combinations in reversing HIV-1 latency was tested in resting CD4+ T cells derived from ART-treated HIV-1-infected humanized BLT mice.
Human resting CD4+ T cells from ten mice were isolated from blood, thymic organoid, lung, spleen, bone marrow, lymph nodes and liver. Isolated human resting CD4+ T cells were pooled, counted, split and treated in duplicate for 48 h with different IAPa (1 μM) or ICI (10 μg/ml) in monotherapy, or the IAPa/ICI combinations. Amounts of virions released from cells were quantified at the indicated time points by quantifying HIV RNA levels (HIV RNA copies/mL) in supernatant of cell culture using one-step reverse transcriptase quantitative real-time PCR (ABI custom TaqMan Assays-by-Design) according to the manufacturer's instructions. Primers were 5-[…]-3 and 5-[…]-3, and MGB probe 5-FAM-[…]-Q-3, where FAM is 6-carboxyfluorescein.
as §6

[6] = IAPa 1 μM monotherapy (0.1% DMSO, no ICI), 48 h
[7] = IAPa 1 μM with Control IgG1, 48 h
[8] = IAPa 1 μM with Control IgG2, 48 h

## CN[C@@H](C)C(=O)N[C@H]1CN(C(=O)CC(C)C)CC[C@H]2CC[C@@H](C(=O)NC(c3ccccc3)c3ccccc3)N2C1=O [Debio 1143, (5S,8S,10aR)-N-benzhydryl-5-((S)-2-(methylamino)propanamido)-3-(3-methylbutanoyl)-6-oxodecahydropyrrolo[1,2-a][1,5]diazocine-8-carboxamide]
2D10 cells
  cytotoxicity (LDH assay): did not exhibit any cytotoxicity
[1]
  cytotoxicity: no significant cytotoxicity
[2]
  cytotoxicity: no significant cytotoxicity
[3]; [6]
  latency reversal class (HIV RNA copies/ml in supernatant): 1 (Between 501 and 1000 RNA copies/ml were classified as “1”)
[3]; [7]
  latency reversal class (HIV RNA copies/ml in supernatant): 1 (Between 501 and 1000 RNA copies/ml were classified as “1”)
[3]; [8]
  latency reversal class (HIV RNA copies/ml in supernatant): 1 (Between 501 and 1000 RNA copies/ml were classified as “1”)
[4]; IAPa 1 μM monotherapy (0.1% DMSO, no ICI), 48 h (Table 3)
  latency reversal class (HIV RNA copies/ml in supernatant): 3 (Subsequent classes were defined accordingly in steps of 500 RNA copies/ml)
[4]; IAPa 1 μM with Control IgG1, 48 h (Table 3)
  latency reversal class (HIV RNA copies/ml in supernatant): 3 (Subsequent classes were defined accordingly in steps of 500 RNA copies/ml)
[4]; IAPa 1 μM with Control IgG2, 48 h (Table 3)
  latency reversal class (HIV RNA copies/ml in supernatant): 3 (Subsequent classes were defined accordingly in steps of 500 RNA copies/ml)
[5]; [6]
  latency reversal class (HIV RNA copies/ml in supernatant): 2 (Between 2501 and 5000 RNA copies/ml were classified as “2”)
[5]; [7]
  latency reversal class (HIV RNA copies/ml in supernatant): 2 (Between 2501 and 5000 RNA copies/ml were classified as “2”)
[5]; [8]
  latency reversal class (HIV RNA copies/ml in supernatant): 2 (Between 2501 and 5000 RNA copies/ml were classified as “2”)
